The target of one test is BRD4(BD1) (Homo sapiens (Human), UniProt O60885). As to the kind of experiment: In vitro enzyme inhibition assay (BRD4 AlphaScreen, H4-tetraacetyl peptide). Format: binding. The settings on record: BRD4(BD1) 2 nM, peptide 15 nM. The procedure, abridged:
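His-tagged BRD4(BD1), 2 nM, with 15 nM biotinylated H4K5/8/12/16(Ac) peptide in HEPES pH 7.3 buffer, 0.4% DMSO, 20 min RT with compound. Streptavidin donor and Ni-chelate acceptor beads (5 μg/mL) then equilibrated 2 h. AlphaScreen signal; IC50 by four-parameter fit.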

For test [1], the system named is Raji, human Burkitts lymphoma cells. The experiment in a line: Cell-MTS cellular proliferation assay, Raji. The format is cell-based. To be noted: Homo sapiens, 168 hr incubation. The procedure, abridged: (§1)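 Cells seeded to reach ~90% confluence at 7 days (Raji 15,000, HL-60 5,000, NCI-H460 3,000 per well); 11-point compound dilution, 100 µM to 2.0 nM final, added 24 h after plating. Exposure 168 hr at 37 °C, 5% CO2; MTS read at OD490. IC50 from background-subtracted OD490 normalized to DMSO controls.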
For orientation: Tetrazolium dyes change colour on reduction, which living cells bring about.

Test [2] deals with HL-60, human proleukemia cells. The experiment in a line: Cell-MTS cellular proliferation assay, HL-60. The format is cell-based. The settings on record: Homo sapiens, HL-60 cells, 168 hr incubation. In a few lines: as §1
The test system of test [3] is NCI-H460, human non-small cell lung cancer cells. The experiment in a line: Cell-MTS cellular proliferation assay, NCI-H460. The format is cell-based. To be noted: Homo sapiens, 168 hr incubation. The procedure, abridged: as §1

Where a name gives a salt, the structure may show the parent alone.

For orientation: IC50 means the concentration that inhibits the measured activity by half. Read a low IC50 as inhibition by little substance. On to `Cc1cc(-c2cc(CS(C)(=O)=O)cc3nc(C4CC4)oc23)cn(C)c1=O` [Example 56, 5-[2-cyclopropyl-5-(methylsulfonylmethyl)-1,3-benzoxazol-7-yl]-1,3-dimethylpyridin-2-one], for which the IC50 was not above 500 nM on BRD4(BD1), 500 to 5000 nM in test [1], not above 500 nM in test [2] and more than 5000 nM in test [3].
On to `Cc1cc(-c2cc(S(C)(=O)=O)c3nc(C)n(CC4CC4)c3c2)cn(C)c1=O` [Example 71, 5-[3-(cyclopropylmethyl)-2-methyl-7-methylsulfonylbenzimidazol-5-yl]-1,3-dimethylpyridin-2-one], for which the IC50 against BRD4(BD1) was not above 500 nM; in test [1], more than 5000 nM; in test [2] it was 500 to 5000 nM; in test [3], more than 5000 nM.
Regarding `COc1cc(-c2cc(NS(C)(=O)=O)c3c(F)nn(Cc4ccc(F)cc4)c3c2)cn(C)c1=O` [Example 65, N-[3-fluoro-1-[(4-fluorophenyl)methyl]-6-(5-methoxy-1-methyl-6-oxopyridin-3-yl)indazol-4-yl]methanesulfonamide], the IC50 was not above 500 nM against BRD4(BD1), not above 500 nM in test [1], not above 500 nM in test [2] and more than 5000 nM in test [3].
Take `CCS(=O)(=O)Nc1cc(-c2cc(C)c(=O)n(C)c2)cc2c1ncn2Cc1cccc(F)c1` [Example 33, N-[6-(1,5-dimethyl-6-oxopyridin-3-yl)-1-[(3-fluorophenyl)methyl]benzimidazol-4-yl]ethanesulfonamide]: the IC50 against BRD4(BD1) is not above 500 nM; in test [1] it was not above 500 nM; in test [2], not above 500 nM; in test [3] it was 500 to 5000 nM.
As for `CCS(=O)(=O)Nc1cc(-c2cc(C)c(=O)n(C)c2)cc2c1nc(C)n2Cc1cccc(F)c1` [Example 36, N-[6-(1,5-dimethyl-6-oxopyridin-3-yl)-1-[(3-fluorophenyl)methyl]-2-methylbenzimidazol-4-yl]ethanesulfonamide], the IC50 (at BRD4(BD1); in test [1]; in test [2]; in test [3]) was not above 500 nM throughout.
Take `Cc1cc(-c2cc3c(cc2OCC2CC2)CCN3S(C)(=O)=O)cn(C)c1=O` [Example 15, 5-[5-(cyclopropylmethoxy)-1-methylsulfonyl-2,3-dihydroindol-6-yl]-1,3-dimethylpyridin-2-one]: the IC50 at BRD4(BD1) is not above 500 nM; in test [1] it was not above 500 nM; in test [2], not above 500 nM; in test [3], more than 5000 nM.
For `CCc1cc2cc(S(C)(=O)=O)cc(-c3cn(C)c(=O)c4ccccc34)c2o1` [4-(2-ethyl-5-(methylsulfonyl)benzofuran-7-yl)-2-methylisoquinolin-1(2H)-one, reference compound], the IC50 was not above 500 nM against BRD4(BD1), not above 500 nM in test [1], not above 500 nM in test [2] and 500 to 5000 nM in test [3].
With `CCS(=O)(=O)Cc1cc(-c2cc(OC)c(=O)n(C)c2)c2oc(C3CC3)nc2c1` [Example 100, 5-[2-cyclopropyl-5-(ethylsulfonylmethyl)-1,3-benzoxazol-7-yl]-3-methoxy-1-methylpyridin-2-one], the IC50 against BRD4(BD1) is not above 500 nM; in test [1] it was not above 500 nM; in test [2] it was not above 500 nM; in test [3], more than 5000 nM.
Regarding `CN1Cc2ccc(-c3cn(C)c(=O)c4ccccc34)cc2S1(=O)=O` [Example 1, 2-methyl-4-(2-methyl-1,1-dioxo-3H-1,2-benzthiazol-6-yl)isoquinolin-1-one], the IC50 (against BRD4(BD1); in test [1]; in test [2]; in test [3]) was 500 to 5000 nM throughout.
For the compound `Cc1cc(-c2cc(CS(C)(=O)=O)c3nc(C)n(CC4CC4)c3c2)cn(C)c1=O` [Example 96, 5-[3-(cyclopropylmethyl)-2-methyl-7-(methylsulfonylmethyl)benzimidazol-5-yl]-1,3-dimethylpyridin-2-one], the IC50 at BRD4(BD1) is not above 500 nM; in test [1] it was not above 500 nM; in test [2], not above 500 nM; in test [3], more than 5000 nM.
As for `CCS(=O)(=O)Nc1cc(-c2cc(C)c(=O)n(C)c2)cc2c1ncn2Cc1ccc(F)cc1F` [Example 41, N-[1-[(2,4-difluorophenyl)methyl]-6-(1,5-dimethyl-6-oxopyridin-3-yl)benzimidazol-4-yl]ethanesulfonamide], the IC50 was not above 500 nM at BRD4(BD1), not above 500 nM in test [1], not above 500 nM in test [2] and 500 to 5000 nM in test [3].
As to `CCCCn1c(C)nc2c(NS(C)(=O)=O)cc(-c3cc(OC)c(=O)n(C)c3)cc21` [Example 95, N-[1-butyl-6-(5-methoxy-1-methyl-6-oxopyridin-3-yl)-2-methylbenzimidazol-4-yl]methanesulfonamide hydrochloride], the IC50 is not above 500 nM on BRD4(BD1), not above 500 nM in test [1], not above 500 nM in test [2] and more than 5000 nM in test [3].
On to `CCCCn1c(C)nc2c(NS(C)(=O)=O)cc(-c3cc(C)c(=O)n(C)c3)cc21` [Example 94, N-[1-butyl-6-(1,5-dimethyl-6-oxopyridin-3-yl)-2-methylbenzimidazol-4-yl]methanesulfonamide hydrochloride], for which the IC50 is not above 500 nM against BRD4(BD1), not above 500 nM in test [1], not above 500 nM in test [2] and more than 5000 nM in test [3].
In the case of `Cc1cc(-c2cc3c(nc(C)n3Cc3ccccc3)c(NS(C)(=O)=O)n2)cn(C)c1=O` [Example 61, N-[1-benzyl-6-(1,5-dimethyl-6-oxopyridin-3-yl)-2-methylimidazo[4,5-c]pyridine-4-yl]methanesulfonamide], the IC50 was not above 500 nM against BRD4(BD1), not above 500 nM in test [1], not above 500 nM in test [2] and more than 5000 nM in test [3].
On to `CCN1Cc2cc(OCC3CC3)c(-c3cc(C)c(=O)n(C)c3)cc2S1(=O)=O` [Example 8, 5-[5-(cyclopropylmethoxy)-2-ethyl-1,1-dioxo-3H-1,2-benzothiazol-6-yl]-1,3-dimethylpyridin-2-one], for which the IC50 on BRD4(BD1) was not above 500 nM; in test [1] it was 500 to 5000 nM; in test [2] it was not above 500 nM; in test [3], 500 to 5000 nM.
`Cn1cc(-c2cc(NS(C)(=O)=O)c3ccn(Cc4ccccc4)c3c2)c2ccccc2c1=O` [Example 17, N-[1-benzyl-6-(2-methyl-1-oxoisoquinolin-4-yl)indol-4-yl]methanesulfonamide]: the IC50 was not above 500 nM against BRD4(BD1), not above 500 nM in test [1], not above 500 nM in test [2] and 500 to 5000 nM in test [3].
Regarding `CCS(=O)(=O)N1CCc2cc(OCC3CC3)c(-c3cc(C)c(=O)n(C)c3)cc21` [Example 16, 5-[5-(cyclopropylmethoxy)-1-ethylsulfonyl-2,3-dihydroindol-6-yl]-1,3-dimethylpyridin-2-one], the IC50 against BRD4(BD1) was not above 500 nM; in test [1], not above 500 nM; in test [2], not above 500 nM; in test [3], more than 5000 nM.
`CCS(=O)(=O)Nc1cc(-c2cc(C)c(=O)n(C)c2)cc2c1cnn2Cc1ccccc1` [Example 42, N-[1-benzyl-6-(1,5-dimethyl-6-oxopyridin-3-yl)indazol-4-yl]ethanesulfonamide]: the IC50 was not above 500 nM on BRD4(BD1), not above 500 nM in test [1], not above 500 nM in test [2] and 500 to 5000 nM in test [3].
As to `CCS(=O)(=O)N1CCc2cc(OCC3CC3)c(-c3cn(C)c(=O)c4ccccc34)cc21` [Example 14, 4-[5-(cyclopropylmethoxy)-1-ethylsulfonyl-2,3-dihydroindol-6-yl]-2-methylisoquinolin-1-one], the IC50 on BRD4(BD1) is not above 500 nM; in test [1] it was not above 500 nM; in test [2] it was not above 500 nM; in test [3], 500 to 5000 nM.
For `Cc1cc(-c2cc(NS(C)(=O)=O)c3nc(C)n([C@@H](C)c4ccccc4)c3c2)cn(C)c1=O` [Example 44, N-[6-(1,5-dimethyl-6-oxopyridin-3-yl)-2-methyl-1-[(1S)-(1-phenylethyl)]benzimidazol-4-yl]methanesulfonamide], the IC50 was not above 500 nM against BRD4(BD1), not above 500 nM in test [1], not above 500 nM in test [2] and 500 to 5000 nM in test [3].
With `Cc1cc(-c2cc(NS(C)(=O)=O)c3ncn(Cc4ccccc4)c3c2)cn(C)c1=O` [Example 31, N-[1-benzyl-6-(1,5-dimethyl-6-oxopyridin-3-yl)benzimidazol-4-yl]methanesulfonamide], the IC50 against BRD4(BD1) is not above 500 nM; in test [1] it was not above 500 nM; in test [2] it was not above 500 nM; in test [3] it was 500 to 5000 nM.
Turning to `Cc1cc(-c2cc3c(cc2OCC2CC2)CN(C)S3(=O)=O)cn(C)c1=O` [Example 5, 5-[5-(cyclopropylmethoxy)-2-methyl-1,1-dioxo-3H-1,2-benzothiazol-6-yl]-1,3-dimethylpyridin-2-one], the IC50 is not above 500 nM at BRD4(BD1), 500 to 5000 nM in test [1], not above 500 nM in test [2] and more than 5000 nM in test [3].
For `CN1Cc2cc(OCC(F)(F)F)c(-c3cn(C)c(=O)c4ccccc34)cc2S1(=O)=O` [Example 10, 2-methyl-4-[2-methyl-1,1-dioxo-5-(2,2,2-trifluoroethoxy)-3H-1,2-benzothiazol-6-yl]isoquinolin-1-one], the IC50 was not above 500 nM against BRD4(BD1), 500 to 5000 nM in test [1], not above 500 nM in test [2] and 500 to 5000 nM in test [3].
